In brackets after ≈: the same amount, converted by molar mass.
Key:
[1] = tested on: S. aureus (ATCC #29213) cells; test: Membrane depolarization assay (DiOC2(3), flow cytometry); format: cell-based; details: positive control, 10 μL of 500 μM in 1 mL
Protocol: S. aureus (ATCC #29213) cells were grown to log phase (14 h) in Mueller Hinton Broth cation-adjusted (MHB50) and were diluted to 0.07 OD600 with media. One mL aliquots were transferred to 1.5 mL centrifuge tubes and treated with the following in triplicate: 10 μL DMSO (control), 10 μL of 600 μg/mL ecteinamycin, 10 μL of 3.2 mg/mL ecteinamycin (1), 10 μL of 500 μM carbonyl cyanide m-chlorophenythydrazone (CCCP), and 10 μL of 3.2 mg/mL rifampicin. Additionally, each tube received 10 μL of 3 mM DiOC2(3) (3,3′-diethyloxacarbocyanine iodide). The tubes were shaken for 15 minutes at room temperature. The cells were then analyzed with a FACSCalibur (BD Biosciences) flow cytometer and CellQuestPro software (BD Biosciences). Collected data represent the geometric means of fluorescence of 40,000 gated events.
Flow cytometry was used to determine if ecteinamycin, like other polyether ionophore antibiotics, depolarizes cell membranes. 3,3′-diethyloxacarbocyanine iodide (“DiOC2(3)”) fluoresces green in bacterial cells but shifts to red when the cell membrane is depolarized. Therefore, the ratio of red to green fluorescence is indicative of the membrane potential. S. aureus ATCC […] cells were treated with ecteinamycin at concentrations of 6 and 32 μg/mL.
All cells except the DMSO negative control were treated with DiOC2(3) and analyzed by flow cytometry. […]

[2] = tested on: C. difficile; details: reported; cited from earlier work
[3] = tested on: MSSA (ATCC #29213); test: MIC, dilution antimicrobial susceptibility test; format: cell-based, Methicillin-sensitive Staphylococcus aureus; details: Staphylococcus aureus, 18 h
Protocol: (§1) Ecteinamycin was tested for antibacterial activity against C. difficile (ATCC BAA-1870), MRSA (ATCC #33591), MSSA (ATCC #29213), E. coli (ATCC #25922), P. aeruginosa (ATCC #27853), and VRE (ATCC), and MICs were determined using a dilution antimicrobial susceptibility test for aerobic (MRSA, MSSA, E. coli, P. aeruginosa, and VRE) and anaerobic (C. difficile) bacteria. Ecteinamycin was dissolved in DMSO, serially diluted to 10 concentrations (0.0313-32 μg/mL), and tested in a 96-well plate. […] Ecteinamycin and vancomycin were tested in triplicate. Six untreated media controls were included on each plate. For MRSA, MSSA, E. coli, and P. aeruginosa, the plates were incubated at 33° C. for 18 h. For C. difficile, the plate was incubated at 36° C. for 48 h anaerobically and then read visually using a mirror apparatus. All manipulations to the plate were done inside the anaerobe chamber. The MIC was determined as the lowest concentration that inhibited visible growth.

[4] = tested on: MRSA (ATCC #33591); test: MIC, dilution antimicrobial susceptibility test; format: cell-based, Methicillin-resistant Staphylococcus aureus; details: Staphylococcus aureus, 18 h
Protocol: as §1

[5] = in vivo; cited from earlier work

Q: With N#CC(C#N)=NNc1cccc(Cl)c1 [CCCP, carbonyl cyanide m-chlorophenylhydrazone, reference compound] as the compound, how does the “membrane depolarization (ratio of red to green fluorescence)” value [1] read?
A: Its value is “membrane depolarization to a greater extent than ecteinamycin”.

Q: With CO[C@@H]1C[C@@H](C[C@H]2CC[C@H](C)[C@H]([C@@H](C)C(=O)O)O2)O[C@]2(O[C@](C)([C@H]3CC[C@@](C)([C@@H]4O[C@@H]([C@H]5O[C@@](O)(CO)[C@H](C)C[C@@H]5C)C[C@@H]4C)O3)C[C@H]2C)[C@@H]1C [Nigericin] as the compound, how does the MIC [2] read?
A: Its MIC is 0.0025 µg/mL (≈ 0.00345 µM).

Q: With CN[C@H](CC(C)C)C(=O)N[C@H]1C(=O)N[C@@H](CC(N)=O)C(=O)N[C@H]2C(=O)N[C@H]3C(=O)N[C@H](C(=O)N[C@H](C(=O)O)c4cc(O)cc(O)c4-c4cc3ccc4O)[C@H](O)c3ccc(c(Cl)c3)Oc3cc2cc(c3O[C@@H]2O[C@H](CO)[C@@H](O)[C@H](O)[C@H]2O[C@H]2C[C@](C)(N)[C@H](O)[C@H](C)O2)Oc2ccc(cc2Cl)[C@H]1O [Vancomycin, reference compound] as the compound, how does the MIC [3] read?
A: Its MIC is 1 µg/mL (≈ 0.69 µM).

Q: And the MIC [4]?
A: Its MIC is 1 µg/mL (≈ 0.69 µM).

Q: What does the source list for CC[C@@]1([C@@H]2O[C@@H]([C@H]3O[C@@](O)(CO)[C@H](C)C[C@@H]3C)C[C@@H]2C)CC[C@H]([C@]2(C)CC[C@]3(C[C@H](O)[C@@H](C)[C@@H]([C@@H](C)[C@@H](OC)[C@H](C)C(=O)O)O3)O2)O1 [monensin]?
A: MIC [2]: 0.5 µg/mL (≈ 0.745 µM); oral bioavailability [5]: 30%

Source: patent publication US10660874B2, “Ecteinamycin, compositions and uses thereof” (Wisconsin Alumni Research Foundation, priority 2014, dated 2020)
